# In publication PMC9241057, “Ru(II)arene(N^N bpy/phen)-based RAPTA complexes for in vitro anti-tumour activity in human glioblastoma cancer cell lines and in vivo toxicity studies in a zebrafish model” (RSC Advances, 2022):
# Experiments:
# Ct-DNA = test: DNA binding study, UV-visible absorption titration; set-up: species or system calf
# Description: The DNA binding proficiency of RAPTA complexes was explored by applying the concept of electronic absorption titration. The binding propensity of the RAPTA complex, 4c with Ct-DNA, was investigated using UV-visible studies. […] From the plot of [DNA]/(εa − εf) vs. [DNA] the intrinsic binding constant (Kb) was recognized for the specified 4c–DNA conjugate.
# The binding capability of the complexes with calf-thymus DNA (Ct-DNA) was evaluated using electronic absorption spectroscopy, and the competitive binding assay was studied using ethidium bromide (EtBr) as a quencher by fluorescence spectroscopy.
# The DNA binding experiment was performed in aqueous medium using RAPTA complex 4c in Tris-HCl buffer (5 mM Tris-HCl in water, pH 7.4). The concentration of Ct-DNA was determined using its absorbance at 260 nm and a known molar absorption coefficient of 6600 M-1.cm-1. In cuvettes, an equal amount of DNA was introduced to both the sample and the reference. […] The sample was equilibrated with CT-DNA for around 5 minutes before each measurement, and then the complex's absorbance was measured. The intrinsic DNA binding constant (K b) was calculated using the equation (i): […]
# UV and Fluorescence study
# All of these RAPTA complexes were studied in a 10% DMSO solution using UV and fluorescence. […] Quantum yield was calculated according to the equation (ii): […]
# EtBr-bound DNA (Ct-DNA) = test: EtBr displacement assay (fluorescence); type: binding, calf; conditions: for Ksv, Stern-Volmer quenching constant: EtBr-bound DNA; for Kapp, apparent DNA binding constant: competitive displacement of EtBr
# Description: Ethidium bromide displacement assay […]
# bromide (EtBr) displacement experiment was used.3 Using ethidium bromide (EtBr) as a spectral probe in 5 mM Tris-HCl buffer, the apparent binding constant (K app) of the RAPTA complex 4c to Ct-DNA was determined at pH = 7.4. Because the fluorescence of EtBr was quenched by the solvent molecules, it was unable to show any fluorescence in its free state.
# However, in the presence of Ct-DNA, its fluorescence intensity began to increase, indicating that EtBr binds to DNA […] in an intercalative manner. With increasing concentrations of […]
# complexes displaced EtBr from CT-DNA grooves and were linked to the DNA base pairs itself. The values of the apparent binding constant (K app) were obtained by using the equation […]
# Kapp × [Complex]50 = kEtBr × [EtBr]⋯⋯⋯(iii)
# Where KEtBr is the EtBr binding constant (K EtBr = 1.0 x 107 M-1), and [EtBr] = 8 x 10^-6 M.
# Stern-Volmer equation was followed for quantitative determination of the Stern-Volmer quenching constant (K SV).4 Origin (8.5) software was used to plot the fluorescence data to obtain linear plot of I0/I vs. [complex]. The value of KSV was calculated from the following […]
# Where I0 = fluorescence intensity in absence of complex and I = fluorescence intensities in presence of complex of concentration [Q]. […]
# zebrafish = test: In vivo biodistribution study in zebrafish; conditions: 25 μg g^−1, 15 minutes
# Description: Biodistribution and sequestration studies of complex 4c were conducted via the caudal vein injection into the zebrafish. After 15 minutes (25 μg g^−1) of exposure, the fish were sacrificed and different organs (brain, heart, kidney, intestine, notochord and digestive system) were dissected and the biodistribution of this complex into these organs was measured by fluorescence microscopy. A comparative study was performed with complex 4c and Evans blue dye and was analyzed by the confocal imaging of the tissue sections. From this experiment, it was observed that the sensitivity of zebrafish towards 4c was sequestered in the brain, heart, kidney, intestine, notochord and digestive system. […] Furthermore, this fluorescence-based interaction could provide us with an idea of the uptake mechanism via crossing the blood–brain barrier.
# Zebrafish were anesthetized with 2-phenoxyethanol and injected with complex 4cvia […]. After injection at different times, the fish were sacrificed and the organs were collected and fixed with 4% paraformaldehyde and 4% glutaraldehyde, followed by dehydration with the gradient increase of ethanol (75%, 95%, 100%) for 20 min each, further with xylene for 1 h and then fixed in Paraplast. […] Sequestration of complex 4c in different organs was investigated by confocal fluorescence microscopy using a CLSM (Zeiss LSM 710) microscope. […]
# zebrafish embryos = conditions: embryos exposed for 5 h to 100 μM
compound,measurement,setting,value
"C1N2CN3CN1CP(C2)C3.Cc1ccc(C(C)C)cc1.Cc1ccnc2c1ccc1c(C)ccnc12.F[P-](F)(F)(F)(F)F.F[P-](F)(F)(F)(F)F.[Ru+2] [4c, [(η^6-p-Cymene)Ru^II(κ^2-N,N-4,7dimethylphenanthroline)(PTA)]·2PF6]",Change in absorbance,Ct-DNA,Hyperchromism
same,"Δε (%), % of hyperchromism/hypochromism",Ct-DNA,50%
same,"Ksv, Stern-Volmer quenching constant",EtBr-bound DNA (Ct-DNA),180 M⁻¹
same,"Ksv, Stern-Volmer quenching constant",EtBr-bound DNA (Ct-DNA); Table S2,180 M⁻¹
same,"Kapp, apparent DNA binding constant",EtBr-bound DNA (Ct-DNA),1.38e+06 M⁻¹
same,"Kapp, apparent DNA binding constant",EtBr-bound DNA (Ct-DNA); Table S2,1.38e+06 M⁻¹
same,accumulation in the brain,zebrafish,accumulation was significant
same,"sequestration in digestive system, kidney and notochord",zebrafish,maximum sequestration
same,morbidity or mortality of embryos,zebrafish embryos,No significant morbidity or mortality
